Test results as given in the supplement of paper PMC10307832.

How the values were obtained:
Experiment in all cases: relative viability (nuclei count vs DMSO), 5 days (fraction); higher = more cells survive
[1] = compound: COc1cc2c(Oc3ccc4[nH]c(C)cc4c3F)ncnc2cc1OCCCN1CCCC1 [Cediranib] + COc1cccc2cc(-c3nc([C@H]4CC[C@H](C(=O)O)CC4)n4ncnc(N)c34)[nH]c12 [OSI-027] (partner 0.5 µM)
How it was run: (§1)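 A single step with final 0.05% Triton X-100, 1% formaldehyde and 1 ug/ml Hoechst fixed the cells and stained nuclei 5 days after treatment. Lung cancer cell lines in 1536-well plates had been treated by pin tool the day after seeding with one drug alone or a fixed anchor-drug dose plus five library-drug doses (not always all listed) in √10 steps, and nuclei were counted on 4× images. Relative viability is the ratio of nuclei in treated wells to nuclei in vehicle wells, taken as the median of duplicate plates.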

[2] = compound: Nc1ncn([C@H]2C[C@H](O)[C@@H](CO)O2)c(=O)n1 [Decitabine] + COc1cc2c(Oc3ccc(NC(=O)C4(C(=O)Nc5ccc(F)cc5)CC4)cc3F)ccnc2cc1OCCCN1CCOCC1 [Foretinib] (partner 0.25 µM)
How it was run: as §1

[3] = compound: Nc1ncn([C@H]2C[C@H](O)[C@@H](CO)O2)c(=O)n1 [Decitabine] + O=C(CCCCCCC(=O)Nc1ccccc1)NO [Vorinostat] (partner 1 µM)
How it was run: as §1

[4] = compound: O=C(C[C@H]1NCCC[C@@H]1O)Cn1cnc2cc(Br)c(Cl)cc2c1=O (racemic) [Halofuginone] + Nc1ncn([C@H]2C[C@H](O)[C@@H](CO)O2)c(=O)n1 [Decitabine] (partner 2 µM)
How it was run: as §1

Row | Cell Line | relative viability ([1]; first compound 0.04 µM) | relative viability ([1]; first compound 0.1265 µM) | relative viability ([1]; first compound 0.4 µM) | relative viability ([1]; first compound 1.265 µM) | relative viability ([1]; first compound 4 µM) | relative viability ([2]; first compound 0.04 µM) | relative viability ([2]; first compound 0.1265 µM) | relative viability ([2]; first compound 0.4 µM) | relative viability ([2]; first compound 1.265 µM) | relative viability ([2]; first compound 4 µM) | relative viability ([3]; first compound 0.04 µM) | relative viability ([3]; first compound 0.1265 µM) | relative viability ([3]; first compound 0.4 µM) | relative viability ([3]; first compound 1.265 µM) | relative viability ([3]; first compound 4 µM) | relative viability ([4]; first compound 0.001 µM) | relative viability ([4]; first compound 0.003162 µM) | relative viability ([4]; first compound 0.01 µM) | relative viability ([4]; first compound 0.03162 µM) | relative viability ([4]; first compound 0.1 µM)
1 | NCI-H2023 | 0.342 | 0.402 | 0.374 | 0.385 | 0.415 | 0.649 | 0.617 | 0.369 | 0.265 | 0.189 | 0.305 | 0.389 | 0.23 | 0.142 | 0.119 | 0.234 | 0.232 | 0.213 | 0.182 | 0.0828
2 | NCI-H2085 | 0.801 | 0.786 | 0.759 | 0.48 | 0.856 | 0.695 | 0.556 | 0.407 | 0.457 | 0.426 | 0.65 | 0.657 | 0.591 | 0.443 | 0.431 | 0.562 | 0.542 | 0.546 | 0.581 | 0.52
3 | NCI-H2087 | 0.558 | 0.742 | 0.526 | 0.425 | 0.763 | 0.558 | 0.624 | 0.393 | 0.317 | 0.269 | 0.268 | 0.285 | 0.301 | 0.304 | 0.208 | 0.3 | 0.356 | 0.308 | 0.27 | 0.228
4 | NCI-H2126 | 0.649 | 0.577 | 0.668 | 0.597 | 0.537 | 1.05 | 0.929 | 0.607 | 0.583 | 0.466 | 0.675 | 0.678 | 0.477 | 0.488 | 0.386 | 0.586 | 0.612 | 0.58 | 0.52 | 0.588
